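Interpolation was linear, between the two tested concentrations surrounding the appropriate level; five concentrations were tested over 48 hours in 96-well plates. The concentration for 50% growth inhibition is given as GI50.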 Activity calls are given as the source filed them. Rule as the data show it: active = GI50 up to about 1.1 µM and inactive = higher.
What was measured:
Assay in all cases: NCI tumour cell line growth inhibition, 48 h
T47D = tested on: T47D
HCT-15 = tested on: HCT-15
SF-295 = tested on: SF-295
SW-620 = tested on: SW-620
MDA-MB-435 = tested on: MDA-MB-435
SNB-75 = tested on: SNB-75
PC-3 = tested on: PC-3
HOP-62 = tested on: HOP-62
RXF 393 = tested on: RXF 393
SNB-19 = tested on: SNB-19
OVCAR-5 = tested on: OVCAR-5
UACC-257 = tested on: UACC-257
SK-MEL-2 = tested on: SK-MEL-2
OVCAR-8 = tested on: OVCAR-8
HL-60 = tested on: HL-60
MCF7 = tested on: MCF7
NCI-H522 = tested on: NCI-H522
Malme-3M = tested on: Malme-3M
M14 = tested on: M14
UACC-62 = tested on: UACC-62

Compound | GI50 (T47D) | GI50 (HCT-15) | GI50 (SF-295) | GI50 (SW-620) | GI50 (MDA-MB-435) | GI50 (SNB-75) | GI50 (PC-3) | GI50 (HOP-62) | GI50 (RXF 393) | GI50 (SNB-19) | GI50 (OVCAR-5) | GI50 (UACC-257) | GI50 (SK-MEL-2) | GI50 (OVCAR-8) | GI50 (HL-60) | GI50 (MCF7) | GI50 (NCI-H522) | GI50 (Malme-3M) | GI50 (M14) | GI50 (UACC-62)
C=C1C(=O)O[C@H]2C1C[C@@H](O)/C(C)=C/CC[C@@]1(C)O[C@H]21 (stereo partly specified) | 9.12 µM (inactive) | 12.1 µM | > 55.1 µM (inactive) | 4.81 µM (inactive) | 8.2 µM (inactive) | 16.4 µM (inactive) | 23 µM (inactive) | > 59.6 µM (inactive) | 7.62 µM (inactive) | 52 µM (inactive) | > 39.4 µM (inactive) | 13.1 µM (inactive) | 24.3 µM (inactive) | 15.2 µM (inactive) | 2.87 µM (inactive) | 8.57 µM (inactive) | 2.97 µM (inactive) | 4.08 µM (inactive) | 9.35 µM (inactive) | 24.7 µM (inactive)
COc1ccc(C2=CN3CCC[C@H]3C=C2c2cc(O)c(OC)c(OC)c2)cc1OC | 0.00371 µM (active) | 0.00362 µM | 0.00446 µM (active) | 0.00337 µM (active) | 0.00284 µM (active) | 0.00227 µM (active) | 0.0124 µM (active) | 0.0065 µM (active) | 0.00424 µM (active) | 0.00309 µM (active) | 0.00561 µM (active) | 0.00646 µM (active) | 0.00314 µM (active) | 0.00377 µM (active) | 0.00351 µM (active) | 0.005 µM (active) | 0.00418 µM (active) | 0.00421 µM (active) | 0.00325 µM (active) | 0.00405 µM (active)
CC(=O)c1ccc2c(c1)C(=O)c1sc(C(C)=O)cc1C2=O | 1.32 µM (inactive) | 0.918 µM | 1.01 µM (active) | 0.738 µM (active) | 1.18 µM (inactive) | 1.67 µM (inactive) | 1.82 µM (inactive) | 1.73 µM (inactive) | 1.3 µM (inactive) | 0.748 µM (active) | 1.08 µM (active) | 0.859 µM (active) | 1.47 µM (inactive) | 0.695 µM (active) | 0.24 µM (active) | 1.37 µM (inactive) | 0.652 µM (active) | 0.526 µM (active) | 0.91 µM (active) | 0.995 µM (active)
CCOC(=O)N(Cc1cccs1)c1cc(OC)c(OC)c(OC)c1 | 54.1 µM (inactive) | 62.4 µM | > 100 µM (inactive) | > 100 µM (inactive) | 17.4 µM (inactive) | 49.4 µM (inactive) | 33.1 µM (inactive) | > 100 µM (inactive) | 83 µM (inactive) | > 100 µM (inactive) | > 100 µM (inactive) | > 100 µM (inactive) | 26.5 µM (inactive) | 90.4 µM (inactive) | 34.8 µM (inactive) | 58.2 µM (inactive) | 32.6 µM (inactive) | > 100 µM (inactive) | > 100 µM (inactive) | 40 µM (inactive)
COc1ccc2c(CCN)c(C(=O)O)[nH]c2c1 | > 100 µM (inactive) | > 100 µM | > 100 µM (inactive) | > 100 µM (inactive) | > 100 µM (inactive) | > 100 µM (inactive) | > 100 µM (inactive) | > 100 µM (inactive) | > 100 µM (inactive) | > 100 µM (inactive) | > 100 µM (inactive) | > 100 µM (inactive) | > 100 µM (inactive) | > 100 µM (inactive) | > 100 µM (inactive) | > 100 µM (inactive) | > 100 µM (inactive) | > 100 µM (inactive) | > 100 µM (inactive) | > 100 µM (inactive)
Cc1cccc2c(N)c3cccc(C(=O)NCC[N+](C)(C)Cc4c([N+](=O)[O-])ncn4C)c3nc12 | 67.8 µM (inactive) | 27 µM | 25.4 µM (inactive) | 18.9 µM (inactive) | 52.6 µM (inactive) | 27.4 µM (inactive) | 36.6 µM (inactive) | 10.4 µM (inactive) | 48 µM (inactive) | 25.8 µM (inactive) | 23.6 µM (inactive) | 49.9 µM (inactive) | > 80.5 µM (inactive) | 26.3 µM (inactive) | 5.92 µM (inactive) | 12.8 µM (inactive) | 12.4 µM (inactive) | > 43.6 µM (inactive) | 52.4 µM (inactive) | 33.7 µM (inactive)
CCOC(=O)c1ccc(-c2cccs2)n1C | 19 µM (inactive) | 51.5 µM | > 95.3 µM (inactive) | > 80.7 µM (inactive) | > 92.5 µM (inactive) | > 100 µM (inactive) | > 100 µM (inactive) | > 55.5 µM (inactive) | > 66.5 µM (inactive) | > 100 µM (inactive) | > 100 µM (inactive) | > 79.1 µM (inactive) | > 100 µM (inactive) | > 100 µM (inactive) | > 69.5 µM (inactive) | > 96.4 µM (inactive) | 51.6 µM (inactive) | > 67.1 µM (inactive) | > 100 µM (inactive) | 58.5 µM (inactive)
O=c1c2nn3c(=O)n(-c4ccccc4)c(=O)c3nn2c(=O)n1-c1ccccc1 | > 100 µM (inactive) | > 100 µM | 54.1 µM (inactive) | > 100 µM (inactive) | > 100 µM (inactive) | 81.3 µM (inactive) | > 100 µM (inactive) | > 100 µM (inactive) | > 100 µM (inactive) | > 100 µM (inactive) | > 100 µM (inactive) | > 100 µM (inactive) | > 100 µM (inactive) | > 100 µM (inactive) | > 100 µM (inactive) | > 100 µM (inactive) | > 100 µM (inactive) | > 100 µM (inactive) | > 100 µM (inactive) | > 100 µM (inactive)
O=C1c2cc3ccccc3cc2C2(c3ccc(Cl)cc3)N[C@H]3CCCC[C@@H]3N12 (stereo partly specified) | 7.4 µM (inactive) | 21.6 µM | 13.8 µM (inactive) | 17.4 µM (inactive) | 21.9 µM (inactive) | 16.5 µM (inactive) | 14.9 µM (inactive) | 6.79 µM (inactive) | 9.89 µM (inactive) | 13.7 µM (inactive) | 21 µM (inactive) | 19.4 µM (inactive) | 16.4 µM (inactive) | 5.77 µM (inactive) | 13.6 µM (inactive) | 24.7 µM (inactive) |  | 15.1 µM (inactive) | 2.59 µM (inactive) | 15 µM (inactive)
O=C(Nc1ccc(-c2cn3ccccc3n2)cc1)c1cc(Br)ccc1O | > 100 µM (inactive) | > 100 µM | > 100 µM (inactive) | > 100 µM (inactive) | > 100 µM (inactive) | > 100 µM (inactive) | > 100 µM (inactive) | > 100 µM (inactive) | > 100 µM (inactive) | > 100 µM (inactive) | > 100 µM (inactive) | > 100 µM (inactive) | > 100 µM (inactive) | > 100 µM (inactive) | > 100 µM (inactive) | > 100 µM (inactive) | > 100 µM (inactive) | > 100 µM (inactive) | > 100 µM (inactive) | > 100 µM (inactive)
CC(=O)[C@H]1CC[C@H]2[C@@H]3CCC4=CC(=O)CC[C@]4(C)[C@H]3CC[C@]12C [PROGESTERONE] | 20.1 µM (inactive) | 18.9 µM | 25.9 µM (inactive) | 31 µM (inactive) | 19.8 µM (inactive) | 26.1 µM (inactive) | 14.4 µM (inactive) | 20.6 µM (inactive) | 22.4 µM (inactive) | 24.1 µM (inactive) | 19.5 µM (inactive) | 12.9 µM (inactive) | 20 µM (inactive) | 18.4 µM (inactive) | 9.98 µM (inactive) | 21.7 µM (inactive) | 15.6 µM (inactive) | 17.3 µM (inactive) | 17.5 µM (inactive) | 14.7 µM (inactive)
CC(C)(O)c1cc2c(cc1C(C)(C)O)-c1ccccc1-2 | > 100 µM (inactive) | > 100 µM | 67.1 µM (inactive) | > 100 µM (inactive) | > 100 µM (inactive) | 29.2 µM (inactive) | > 100 µM (inactive) |  | 71.9 µM (inactive) | > 100 µM (inactive) | > 100 µM (inactive) | > 100 µM (inactive) | > 100 µM (inactive) | > 100 µM (inactive) | > 100 µM (inactive) | > 100 µM (inactive) | > 100 µM (inactive) | > 100 µM (inactive) | > 100 µM (inactive) | 36.2 µM (inactive)
CC(C)c1[nH]nc(C(N)=O)c1/N=N/N(C)C | 79.6 µM (inactive) | > 100 µM | 64.7 µM (inactive) | > 100 µM (inactive) | 82.2 µM (inactive) | 44.8 µM (inactive) | > 100 µM (inactive) | > 100 µM (inactive) | 63.1 µM (inactive) | > 100 µM (inactive) |  | > 100 µM (inactive) | > 100 µM (inactive) | > 100 µM (inactive) | > 100 µM (inactive) | 28.4 µM (inactive) | 24.4 µM (inactive) | > 100 µM (inactive) | > 100 µM (inactive) | 67.9 µM (inactive)
O=C1NC(=O)[C@@]2(CC[C@@H](O)C2)c2ccncc21 [SESBANINE] | > 100 µM (inactive) | > 100 µM | > 10 µM (inactive) | > 100 µM (inactive) | > 100 µM (inactive) | > 100 µM (inactive) | > 100 µM (inactive) |  | > 100 µM (inactive) | > 100 µM (inactive) | > 100 µM (inactive) | > 100 µM (inactive) | > 100 µM (inactive) | > 100 µM (inactive) | > 100 µM (inactive) | > 100 µM (inactive) | > 100 µM (inactive) | > 100 µM (inactive) | > 100 µM (inactive) | > 100 µM (inactive)

Reference: ChEMBL document CHEMBL1201862, “PubChem BioAssay data set” (2004)
